Twelve compounds from PubChem BioAssay (NCI) can be followed below.

Test systems include KM12 colon; HT29 colon; U251 CNS; SF-295 CNS; OVCAR-8 ovarian; LOX IMVI melanoma; SK-OV-3 ovarian; MALME-3M melanoma; IGROV1 ovarian; COLO 205 colon.
Experiment in all cases: growth of human tumour cells (NCI), 48 h

Values joined by “and” are separate entries in the source; they are usually repeats but may differ in a detail not shown here. Equal values may be shown once.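 48-hour exposure; five concentrations; linearly interpolated endpoints. At the GI50, growth is halved. Definition used: TGI = concentration required for complete inhibition of growth.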

Turning to `O=C(c1ccccc1)C(Br)C(Br)c1cccc([N+](=O)[O-])c1` (centres undefined), the GI50 was 1.61 µM in the test on KM12 colon; 3.45 µM in the test with HT29 colon; 1.56 µM in the test on U251 CNS; 10.8 µM with SF-295 CNS; 3.35 µM in the test with OVCAR-8 ovarian; 1.36 µM in the test with LOX IMVI melanoma. Also, the GI50 in the test on SK-OV-3 ovarian is 11 µM; with MALME-3M melanoma, 2 µM; with IGROV1 ovarian, 2.75 µM; in the test with COLO 205 colon, 1.86 µM. The TGI is 3.05 µM with KM12 colon; above 100 µM in the test on HT29 colon; 3.02 µM in the test with U251 CNS; 24 µM with SF-295 CNS; 12.7 µM in the test with OVCAR-8 ovarian; 2.77 µM in the test on LOX IMVI melanoma. Besides, the TGI in the test on SK-OV-3 ovarian is 22.9 µM; in the test on MALME-3M melanoma, 3.84 µM; in the test on IGROV1 ovarian, 7.5 µM; in the test on COLO 205 colon it was 3.46 µM.
With `COC(=O)CCC1CCC(c2cc(F)ccc2F)(S(=O)(=O)c2ccc(Cl)cc2)CC1` (centres undefined), the GI50 with KM12 colon is 62.1 µM; with HT29 colon, 82.2 µM; in the test on U251 CNS it was above 100 µM; in the test on SF-295 CNS, above 100 µM; with OVCAR-8 ovarian, above 100 µM; with LOX IMVI melanoma, 91.5 µM. In addition, the GI50 with SK-OV-3 ovarian was above 100 µM; with MALME-3M melanoma, 67.1 µM; with IGROV1 ovarian, above 100 µM; with COLO 205 colon, above 100 µM. Further, the TGI in the test with KM12 colon, in the test on HT29 colon, in the test with U251 CNS, with SF-295 CNS, in the test on OVCAR-8 ovarian and with LOX IMVI melanoma was above 100 µM throughout. Further, the TGI in the test with SK-OV-3 ovarian, in the test on MALME-3M melanoma, with IGROV1 ovarian and with COLO 205 colon was above 100 µM each time.
`Cc1ccc2c(c1)C(C)Cc1c(Cl)ncnc1N2C` (centres undefined): the GI50 with KM12 colon is 2.12 µM; with HT29 colon it was 3.48 µM; with U251 CNS it was 4.43 µM; in the test on SF-295 CNS, 3.12 µM; in the test with OVCAR-8 ovarian it was 3.77 µM; in the test with LOX IMVI melanoma, 1.8 µM. The GI50 is 3.75 µM in the test on SK-OV-3 ovarian, 1.76 µM in the test on MALME-3M melanoma, 3.39 µM in the test with IGROV1 ovarian and 2.11 µM with COLO 205 colon. The TGI is 7.98 µM in the test on KM12 colon; 47.2 µM with HT29 colon; 67.9 µM in the test on U251 CNS; 25.2 µM in the test with SF-295 CNS; 23.8 µM in the test on OVCAR-8 ovarian; 3.78 µM with LOX IMVI melanoma. The TGI stood at 31 µM in the test with SK-OV-3 ovarian, 6.5 µM in the test on MALME-3M melanoma, 36.4 µM in the test on IGROV1 ovarian and 4.62 µM with COLO 205 colon.
On to `COc1ccccc1C1c2cc3c(cc2OC(O)(CO)C1C(=O)O)OCO3` (centres undefined) (tested in a mixture with another compound), for which the TGI in the test with KM12 colon, in the test with HT29 colon, with U251 CNS, in the test on SF-295 CNS, in the test with OVCAR-8 ovarian and in the test with LOX IMVI melanoma was above 100 µM in each case. For the same compound, the TGI with SK-OV-3 ovarian, in the test with MALME-3M melanoma, in the test on IGROV1 ovarian and with COLO 205 colon was above 100 µM each time.
Consider `N#CC1=C(N)Oc2c(sc3c(Br)cccc23)C1c1ccc(Br)cc1` (centres undefined), for which the GI50 was 0.434 µM in the test with KM12 colon; 0.315 µM in the test with HT29 colon; 0.544 µM in the test with U251 CNS; 0.38 µM in the test on SF-295 CNS; 0.588 µM in the test with OVCAR-8 ovarian; 0.747 µM in the test on LOX IMVI melanoma. The GI50 in the test on SK-OV-3 ovarian is 0.316 µM; with MALME-3M melanoma, 1.39 µM; in the test on IGROV1 ovarian, 0.887 µM; in the test on COLO 205 colon, 0.406 µM. For the same compound, the TGI with KM12 colon turned out to be 10.2 µM; in the test on HT29 colon, 1.21 µM; with U251 CNS, 2.05 µM; in the test on SF-295 CNS it was 2.85 µM; with OVCAR-8 ovarian, 3.09 µM; in the test on LOX IMVI melanoma, 3.95 µM. Also, the TGI is 3.38 µM in the test with SK-OV-3 ovarian, 20.7 µM in the test on MALME-3M melanoma, 12.9 µM with IGROV1 ovarian and 1.88 µM in the test on COLO 205 colon.
Take `CC(C)c1c(O)ccc2c1CCC1C(C)(C)CCCC21C` (centres undefined): the TGI in the test with KM12 colon is 42.7 µM; with HT29 colon, 32.1 µM; in the test with U251 CNS, 33.2 µM; with SF-295 CNS it was 32.5 µM; in the test on OVCAR-8 ovarian, 31.7 µM; with LOX IMVI melanoma, 31.1 µM. For the same compound, the TGI in the test with SK-OV-3 ovarian turned out to be 33.4 µM; with MALME-3M melanoma it was 35.6 µM; with IGROV1 ovarian, 30 µM; in the test with COLO 205 colon, 32 µM.
In the case of `Cc1cc(=O)[nH]c2cc3c(c4c(n3Cc3ccc(Cl)cc3Cl)CC(C)(C)CC4=O)c(O)c12`, the GI50 is above 100 µM with KM12 colon; above 100 µM with HT29 colon; 62.6 µM with U251 CNS; 16.4 µM in the test on SF-295 CNS; above 100 µM in the test on OVCAR-8 ovarian; above 100 µM in the test on LOX IMVI melanoma. Further, the GI50 in the test on SK-OV-3 ovarian was above 100 µM; in the test with MALME-3M melanoma, 29.9 µM; in the test on IGROV1 ovarian, above 100 µM; with COLO 205 colon it was above 100 µM. For the same compound, the TGI is above 100 µM in the test with KM12 colon; above 100 µM in the test on HT29 colon; above 100 µM in the test on U251 CNS; 63.5 µM with SF-295 CNS; above 100 µM with OVCAR-8 ovarian; above 100 µM in the test with LOX IMVI melanoma. For the same compound, the TGI with SK-OV-3 ovarian was above 100 µM; with MALME-3M melanoma, 75.9 µM; in the test with IGROV1 ovarian, above 100 µM; in the test on COLO 205 colon, above 100 µM.
On to `CCN1C(=O)N(c2ccccc2)C2NC(=S)N(/N=C/C=C/c3ccccc3)C21` (centres undefined), for which the GI50 with KM12 colon is 0.358 µM; with HT29 colon, 0.295 µM; in the test on U251 CNS, 0.44 µM; in the test on SF-295 CNS, 0.276 µM; with OVCAR-8 ovarian, 0.429 µM; in the test on LOX IMVI melanoma it was 0.647 µM. The GI50 in the test with SK-OV-3 ovarian is 0.421 µM; in the test on MALME-3M melanoma, 2.83 µM; with IGROV1 ovarian, 0.599 µM; in the test on COLO 205 colon it was 0.344 µM. For the same compound, the TGI in the test on KM12 colon, in the test on HT29 colon, in the test with U251 CNS, in the test with SF-295 CNS, in the test on OVCAR-8 ovarian and with LOX IMVI melanoma was above 100 µM throughout. The TGI in the test with SK-OV-3 ovarian is above 100 µM; in the test with MALME-3M melanoma it was above 100 µM; with IGROV1 ovarian, above 58.2 µM; in the test on COLO 205 colon it was 8.7 µM.
For the compound `CCC[CH2][Sn]([CH2]CCC)([CH2]CCC)[O]C(=O)c1ccc(Cl)cc1Cl`, the GI50 with KM12 colon was 0.139 µM; in the test with HT29 colon, 0.125 µM; with U251 CNS it was 0.17 µM; in the test with SF-295 CNS it was 0.197 µM; with OVCAR-8 ovarian it was 0.183 µM; in the test with LOX IMVI melanoma it was 0.148 µM. The GI50 in the test with SK-OV-3 ovarian was 0.142 µM; in the test on MALME-3M melanoma, 0.111 µM; with IGROV1 ovarian it was 0.15 µM; in the test with COLO 205 colon, 0.183 µM. The TGI was found to be 0.283 µM with KM12 colon; 0.283 µM with HT29 colon; 0.33 µM in the test on U251 CNS; 0.375 µM in the test with SF-295 CNS; 0.373 µM with OVCAR-8 ovarian; 0.303 µM in the test with LOX IMVI melanoma. Moreover, the TGI came out at 0.279 µM with SK-OV-3 ovarian, 0.258 µM in the test on MALME-3M melanoma, 0.308 µM in the test on IGROV1 ovarian and 0.375 µM in the test on COLO 205 colon.
For the compound `COc1ccc(C(=O)/C=C/c2ccc3c(c2)OCO3)c(OCc2ccccc2)c1`, the TGI with KM12 colon, in the test with HT29 colon, with U251 CNS, in the test on SF-295 CNS, in the test on OVCAR-8 ovarian and in the test with LOX IMVI melanoma was above 100 µM throughout. Besides, the TGI in the test on SK-OV-3 ovarian, in the test with MALME-3M melanoma, with IGROV1 ovarian and in the test on COLO 205 colon was above 100 µM in each case.
As to `CNC(=O)CC1NC(=O)c2csc(n2)-c2ccc(-c3nc(C4=NC(C(=O)N5CCCC5C(N)=O)CO4)cs3)nc2-c2csc(n2)-c2csc(n2)C(C(C)C)NC(=O)CNC(=O)c2csc(n2)C(C(C)C)NC(=O)c2nc1sc2C` (centres undefined), the GI50 with KM12 colon was above 25 µM; in the test on HT29 colon, below 0.001 µM; in the test with U251 CNS, above 25 µM; in the test with SF-295 CNS, above 25 µM; with OVCAR-8 ovarian, above 25 µM; in the test on LOX IMVI melanoma, above 25 µM. The GI50 in the test with SK-OV-3 ovarian, with IGROV1 ovarian and in the test on COLO 205 colon was above 25 µM each time. In addition, the TGI is 4.34 µM and > 25 µM in the test on KM12 colon; above 25 µM in the test with U251 CNS; above 25 µM in the test on SF-295 CNS; above 25 µM in the test with OVCAR-8 ovarian; above 25 µM in the test on LOX IMVI melanoma; 6.03 µM and > 25 µM in the test with SK-OV-3 ovarian. Besides, the TGI in the test with MALME-3M melanoma is above 25 µM.
With `COc1cccc(OCCCN)c1-c1cc(Nc2cnc(C#N)cn2)n[nH]1`, the GI50 is 0.0179 µM and 0.017 µM in the test on KM12 colon; 0.0289 µM and 0.0238 µM with HT29 colon; 0.0759 µM and 0.0569 µM with U251 CNS; 0.0037 µM in the test on SF-295 CNS; 0.00591 µM in the test with OVCAR-8 ovarian; 0.0166 µM and 0.0254 µM in the test on LOX IMVI melanoma. Further, the GI50 with SK-OV-3 ovarian is 0.00474 µM; with COLO 205 colon, 0.0419 µM and 0.0677 µM. Also, the TGI came to 11.1 µM with KM12 colon; 1.28 µM with HT29 colon; 14.4 µM in the test with U251 CNS; 13.4 µM with SF-295 CNS; 1.44 µM with OVCAR-8 ovarian; 9.07 µM in the test on LOX IMVI melanoma. The TGI with SK-OV-3 ovarian worked out at 7.02 µM; with MALME-3M melanoma it was 16.1 µM; with IGROV1 ovarian, 15.6 µM; in the test on COLO 205 colon, 11.2 µM.
